# In ChEMBL document CHEMBL1128571, “Acylshikonin analogues: synthesis and inhibition of DNA topoisomerase-I” (J Med Chem, 1995):
# Target: T1, DNA topoisomerase 1 (Homo sapiens, UniProt P11387)
# T1 sequence (P11387 whole entry): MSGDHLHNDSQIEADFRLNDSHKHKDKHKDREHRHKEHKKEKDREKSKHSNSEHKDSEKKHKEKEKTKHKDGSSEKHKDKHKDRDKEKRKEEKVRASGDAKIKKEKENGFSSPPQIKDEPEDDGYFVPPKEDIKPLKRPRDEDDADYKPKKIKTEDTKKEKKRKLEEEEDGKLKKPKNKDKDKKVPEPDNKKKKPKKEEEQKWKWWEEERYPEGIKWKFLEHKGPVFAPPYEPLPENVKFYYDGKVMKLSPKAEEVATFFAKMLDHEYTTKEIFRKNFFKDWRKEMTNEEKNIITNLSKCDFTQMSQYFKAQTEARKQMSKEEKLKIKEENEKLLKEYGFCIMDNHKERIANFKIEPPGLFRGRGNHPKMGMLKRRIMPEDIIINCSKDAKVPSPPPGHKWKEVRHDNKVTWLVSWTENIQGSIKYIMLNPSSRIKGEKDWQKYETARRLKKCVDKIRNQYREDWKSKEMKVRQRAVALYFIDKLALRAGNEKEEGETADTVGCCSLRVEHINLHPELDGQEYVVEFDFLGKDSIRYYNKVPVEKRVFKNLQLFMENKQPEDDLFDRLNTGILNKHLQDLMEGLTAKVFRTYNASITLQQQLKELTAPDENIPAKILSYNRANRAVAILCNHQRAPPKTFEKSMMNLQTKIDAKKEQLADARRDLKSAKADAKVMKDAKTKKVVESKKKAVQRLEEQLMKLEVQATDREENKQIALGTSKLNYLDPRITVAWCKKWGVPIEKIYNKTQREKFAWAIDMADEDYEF
# Assay: Inhibitory activity against DNA topoisomerase-1 obtained from Hela cells
# Format: cell-based
row,Structure (SMILES),IC50 [µM]
1,CCCCCC(=O)O[C@H](CC=C(C)C)C1=CC(=O)c2c(O)ccc(O)c2C1=O,207
2,CCCCCCCCCCCC(=O)O[C@H](CC=C(C)C)C1=CC(=O)c2c(O)ccc(O)c2C1=O,> 625
3,CC/C=C/CC(=O)O[C@H](CC=C(C)C)C1=CC(=O)c2c(O)ccc(O)c2C1=O,153
4,CCCCCCCC/C=C/CCCCCCCC(=O)O[C@H](CC=C(C)C)C1=CC(=O)c2c(O)ccc(O)c2C1=O,> 625
5,CC/C=C/C(=O)O[C@H](CC=C(C)C)C1=CC(=O)c2c(O)ccc(O)c2C1=O,80
6,CCCCCCCCCCCCCCCCCC(=O)O[C@H](CC=C(C)C)C1=CC(=O)c2c(O)ccc(O)c2C1=O,> 625
7,CCCCCCCCCC(=O)O[C@H](CC=C(C)C)C1=CC(=O)c2c(O)ccc(O)c2C1=O,> 625
8,C=CCCC(=O)O[C@H](CC=C(C)C)C1=CC(=O)c2c(O)ccc(O)c2C1=O,40
9,CC(C)=CC[C@@H](OC(=O)C(Cl)(Cl)Cl)C1=CC(=O)c2c(O)ccc(O)c2C1=O,115
10,CC(C)=CC[C@@H](OC(=O)Cc1ccccc1)C1=CC(=O)c2c(O)ccc(O)c2C1=O,222
11,CC(C)=CC[C@@H](OC(=O)c1ccccc1)C1=CC(=O)c2c(O)ccc(O)c2C1=O,153
12,CCCC(=O)O[C@H](CC=C(C)C)C1=CC(=O)c2c(O)ccc(O)c2C1=O,144
13,CC(C)=CC[C@@H](OC(=O)CCl)C1=CC(=O)c2c(O)ccc(O)c2C1=O,137
14,CC(C)=CC[C@@H](OC(=O)/C=C(C)/C=C/C=C(C)/C=C/C1=C(C)CCCC1(C)C)C1=CC(=O)c2c(O)ccc(O)c2C1=O,> 625
15,CCCCC/C=C/C/C=C/CCCCCCCC(=O)O[C@H](CC=C(C)C)C1=CC(=O)c2c(O)ccc(O)c2C1=O,> 625
16,CCC(=O)O[C@H](CC=C(C)C)C1=CC(=O)c2c(O)ccc(O)c2C1=O,44

row,Structure (SMILES),IC50 [µM]
1,CC(C)=CC[C@@H](OC(=O)\C=C(C)/C=C/C=C(C)/C=C/C1=C(C)CCCC1(C)C)C1=CC(=O)c2c(O)ccc(O)c2C1=O,> 625
2,C/C=C/C=C/C(=O)O[C@H](CC=C(C)C)C1=CC(=O)c2c(O)ccc(O)c2C1=O,130
3,CCCCCCC(=O)O[C@H](CC=C(C)C)C1=CC(=O)c2c(O)ccc(O)c2C1=O,625
4,C=CCC/C=C/C(=O)O[C@H](CC=C(C)C)C1=CC(=O)c2c(O)ccc(O)c2C1=O,126
5,CCCCCCCCCCCCCCCC(=O)O[C@H](CC=C(C)C)C1=CC(=O)c2c(O)ccc(O)c2C1=O,> 625
6,CCC/C=C/C(=O)O[C@H](CC=C(C)C)C1=CC(=O)c2c(O)ccc(O)c2C1=O,153
7,C=CCCCCC(=O)O[C@H](CC=C(C)C)C1=CC(=O)c2c(O)ccc(O)c2C1=O,250
8,CCCCCCCCC(=O)O[C@H](CC=C(C)C)C1=CC(=O)c2c(O)ccc(O)c2C1=O,> 625
9,CCCCCCCC(=O)O[C@H](CC=C(C)C)C1=CC(=O)c2c(O)ccc(O)c2C1=O,> 625
10,CCCCC(=O)O[C@H](CC=C(C)C)C1=CC(=O)c2c(O)ccc(O)c2C1=O,161
11,CC(C)=CC[C@@H](OC(=O)C(c1ccccc1)c1ccccc1)C1=CC(=O)c2c(O)ccc(O)c2C1=O,> 625
12,CCCCC/C=C/C/C=C/C/C=C/CCCCC(=O)O[C@H](CC=C(C)C)C1=CC(=O)c2c(O)ccc(O)c2C1=O,> 625
13,CC(=O)O[C@H](CC=C(C)C)C1=CC(=O)c2c(O)ccc(O)c2C1=O [ACETYLSHIKONIN],45
14,CC(C)=CC[C@@H](OC(=O)C=C(C)C)C1=CC(=O)c2c(O)ccc(O)c2C1=O [DIMETHYLACRYLSHIKONIN],77
15,CC(C)=CC[C@@H](OC(=O)C(C)C)C1=CC(=O)c2c(O)ccc(O)c2C1=O [ISOBUTYLSHIKONIN],84
16,CC(C)=CC[C@@H](O)C1=CC(=O)c2c(O)ccc(O)c2C1=O [SHIKONIN],208
